Patent publication US6284774A, “4-Benzyl piperidine alkylsulfoxide heterocycles and their use as subtype-selective NMDA receptor antagonists” (priority 2000, dated 2001)

Assays:
[1] = system: d-amphetamine-induced stimulation; details: injected into rat nucleus accumbens vs striatum; cited from earlier work
[2] = target: T1, NRIA /2A (Rattus norvegicus, UniProt P35439+Q00959); assay: Electrophysiological assay at NMDA receptor subunits NR1A/2A expressed in Xenopus oocytes; assay type: cell-based; details: rat clones in Xenopus oocytes, currents activated by glutamate (100 μM) and glycine (1-100 μM)
T1 construct: expressed in transfected cells; host or cells: Xenopus laevis oocytes (cRNA micro-injection)
Excerpt: (§1) Many of the properties of native NMDA receptors are seen in recombinant homomeric NR1 receptors expressed in Xenopus oocytes. These properties are altered by the NR2 subunits. Recombinant NMDA receptors expressed in Xenopus oocytes have been studied by voltage-clamp recording, as has developmental and regional expression of the mRNAs encoding NMDA receptor subunits. Electrophysiological assays were utilized to characterize the actions of compounds at NMDA receptors expressed in Xenopus oocytes.
(§2) Electrophysiological Assays at NMDA receptor subunits.
(§3) cDNA clones encoding the NR1A, NR2A, NR2B, and NR2C rat NMDA receptor subtypes were used. […] The clones were transformed into appropriate host bacteria and plasmid preparations were made with conventional DNA purification techniques. A sample of each clone was linearized by restriction enzyme digestion and cRNA was synthesized with T3 RNA polymerase. The cRNA was diluted to 400 ng/μl and stored in 1 μl aliquots at -80° C. until injection.
(§4) The Xenopus Oocyte Expression System
(§5) Follicle-enclosed oocytes were micro-injected with 1:1 mixtures of NR1A:NR2A, 2B or 2C; infecting 1-10 ng of RNA encoding each receptor subunit. NR1A encoding RNA was injected alone at ~20 ng. Oocytes were stored in Barth's medium containing (in mM):NaCl, 88; KCl, 1; CaCl2, 0.41; Ca(NO3)2, 0.33; MgSo4, 0.82 NaHCO3, 2.4; HEPES 5, pH 7.4, with 0.11 mg/ml gentamicin sulphate. While oocytes were still surrounded by enveloping ovarian tissues the Barth's medium was supplemented with 0.1% bovine serum.
(§6) Electrical recordings were made using a conventional two-electrode voltage clamp (Dagan TEV-200) over periods ranging between 3-21 days following injection. […] Drugs were applied by bath perfusion. Using oocytes expressing different subunit combinations of NMDA receptor, NMDA currents were activated by co-application of glutamate (100 μM) and glycine (1-100 μM). Inhibitory potency of the novel antagonists was assessed on responses elicited by fixed concentrations of glutamate and glycine, by measuring reductions in current induced by progressively increasing concentrations of antagonist. Concentration-inhibition curves were fit with equation 1.
(§7) in which Icontrol is the current evoked by agonists alone, pIC50 =-log IC50, IC50 is the concentration of antagonist that produces half maximal inhibition, and n is the slope factor. […] For incomplete curves analysis by fitting was unreliable and IC50 values were calculated by simple regression over linear portions of the curves (Origin: Microcal Software).

[3] = target: T2, NR1A /2B (Rattus norvegicus, UniProt P35439+Q00960); assay: Electrophysiological assay at NMDA receptor subunits NR1A/2B expressed in Xenopus oocytes; assay type: cell-based; details: rat clones in Xenopus oocytes, currents activated by glutamate (100 μM) and glycine (1-100 μM)
T2 construct: expressed in transfected cells; host or cells: Xenopus laevis oocytes (cRNA micro-injection)
Excerpt: as §1, §2, §3, §4, §5, §6, §7

[4] = target: T3, NR1A /2C (Rattus norvegicus, UniProt P35439+Q00961); assay: Electrophysiological assay at NMDA receptor subunits NR1A/2C expressed in Xenopus oocytes; assay type: cell-based; details: rat clones in Xenopus oocytes, currents activated by glutamate (100 μM) and glycine (1-100 μM)
T3 construct: expressed in transfected cells; host or cells: Xenopus laevis oocytes (cRNA micro-injection)
Excerpt: as §1, §2, §3, §4, §5, §6, §7

[5] = system: 6-Hydroxydopamine-lesioned rats; assay: 6-OHDA Rat Assay: potentiation of contraversive rotation induced by L-DOPA methyl ester; assay type: in vivo, Sprague-Dawley rats; details: po; L-DOPA methyl ester 10 mg/kg SC; total contraversive rotations over 6 hour vs L-DOPA only
Experimental: Adult male Sprague-Dawley rats were anesthetized with chloral hydrate and unilateral lesions of the nigrostriatal dopamine system were accomplished by infusion of 8 μg of 6-hydroxydopamine HBr (6-OHDA) into the right medial forebrain bundle. […] A minimum of 3 weeks after surgery, the rotational behavior induced by apomorphine HCL 50 μg/kg subcutaneously (SC) was assessed. […] Rotational behavior was measured using an automatic rotometer system (Rotorat Rotational Activity System, MED Associates, Georgia, Vt.). Anti-parkinsonian activity was assessed as the ability of the compound to potentiate the contraversive rotation induced by L-DOPA methyl ester, 10 mg/kg SC, over a 6 hour period. Experiments were conducted using a crossover paradigm where each rat received either a vehicle plus L-DOPA, or the test compound plus L-DOPA, in randomized order. Rats were tested at 7 day intervals. In experiments in which the compound was tested orally, rats were food deprived for 16 hours. Statistical analysis between treatment groups were performed using a paired t-test.

[6] = at plasma levels leading to NMDA receptor antagonism; cited from earlier work

T3 sequence (Q00961 20-1237, other chains not shown): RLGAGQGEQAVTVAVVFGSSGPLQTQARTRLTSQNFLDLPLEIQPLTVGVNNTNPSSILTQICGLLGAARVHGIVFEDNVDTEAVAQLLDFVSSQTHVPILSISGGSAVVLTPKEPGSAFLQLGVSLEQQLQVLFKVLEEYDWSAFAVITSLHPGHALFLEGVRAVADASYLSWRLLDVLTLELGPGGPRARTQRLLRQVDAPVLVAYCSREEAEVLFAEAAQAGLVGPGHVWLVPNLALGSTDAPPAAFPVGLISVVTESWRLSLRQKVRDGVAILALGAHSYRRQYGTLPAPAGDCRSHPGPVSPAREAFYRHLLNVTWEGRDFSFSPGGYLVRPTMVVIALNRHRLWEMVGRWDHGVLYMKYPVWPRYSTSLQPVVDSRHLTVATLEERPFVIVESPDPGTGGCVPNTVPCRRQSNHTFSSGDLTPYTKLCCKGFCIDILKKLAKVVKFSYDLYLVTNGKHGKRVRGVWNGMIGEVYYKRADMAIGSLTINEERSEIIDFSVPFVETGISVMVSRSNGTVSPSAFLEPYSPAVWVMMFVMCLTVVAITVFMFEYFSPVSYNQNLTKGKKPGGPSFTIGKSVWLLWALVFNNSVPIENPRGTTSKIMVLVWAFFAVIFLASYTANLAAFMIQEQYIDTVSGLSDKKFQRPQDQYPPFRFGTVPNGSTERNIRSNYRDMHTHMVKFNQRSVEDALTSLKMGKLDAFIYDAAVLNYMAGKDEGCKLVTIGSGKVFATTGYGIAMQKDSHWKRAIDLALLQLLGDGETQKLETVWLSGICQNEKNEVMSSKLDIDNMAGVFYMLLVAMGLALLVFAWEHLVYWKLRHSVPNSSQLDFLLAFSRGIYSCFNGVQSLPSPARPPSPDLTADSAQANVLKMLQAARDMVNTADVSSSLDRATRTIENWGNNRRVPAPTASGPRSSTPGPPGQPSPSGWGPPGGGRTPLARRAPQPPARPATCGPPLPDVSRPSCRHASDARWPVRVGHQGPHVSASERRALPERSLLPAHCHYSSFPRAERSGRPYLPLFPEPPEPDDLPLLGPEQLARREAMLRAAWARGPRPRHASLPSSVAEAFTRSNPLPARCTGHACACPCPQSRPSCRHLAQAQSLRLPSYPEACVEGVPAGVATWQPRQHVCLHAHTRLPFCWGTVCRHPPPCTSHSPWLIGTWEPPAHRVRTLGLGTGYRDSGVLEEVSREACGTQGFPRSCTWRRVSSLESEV
T1 sequence (Q00959 23-1464, other chains not shown): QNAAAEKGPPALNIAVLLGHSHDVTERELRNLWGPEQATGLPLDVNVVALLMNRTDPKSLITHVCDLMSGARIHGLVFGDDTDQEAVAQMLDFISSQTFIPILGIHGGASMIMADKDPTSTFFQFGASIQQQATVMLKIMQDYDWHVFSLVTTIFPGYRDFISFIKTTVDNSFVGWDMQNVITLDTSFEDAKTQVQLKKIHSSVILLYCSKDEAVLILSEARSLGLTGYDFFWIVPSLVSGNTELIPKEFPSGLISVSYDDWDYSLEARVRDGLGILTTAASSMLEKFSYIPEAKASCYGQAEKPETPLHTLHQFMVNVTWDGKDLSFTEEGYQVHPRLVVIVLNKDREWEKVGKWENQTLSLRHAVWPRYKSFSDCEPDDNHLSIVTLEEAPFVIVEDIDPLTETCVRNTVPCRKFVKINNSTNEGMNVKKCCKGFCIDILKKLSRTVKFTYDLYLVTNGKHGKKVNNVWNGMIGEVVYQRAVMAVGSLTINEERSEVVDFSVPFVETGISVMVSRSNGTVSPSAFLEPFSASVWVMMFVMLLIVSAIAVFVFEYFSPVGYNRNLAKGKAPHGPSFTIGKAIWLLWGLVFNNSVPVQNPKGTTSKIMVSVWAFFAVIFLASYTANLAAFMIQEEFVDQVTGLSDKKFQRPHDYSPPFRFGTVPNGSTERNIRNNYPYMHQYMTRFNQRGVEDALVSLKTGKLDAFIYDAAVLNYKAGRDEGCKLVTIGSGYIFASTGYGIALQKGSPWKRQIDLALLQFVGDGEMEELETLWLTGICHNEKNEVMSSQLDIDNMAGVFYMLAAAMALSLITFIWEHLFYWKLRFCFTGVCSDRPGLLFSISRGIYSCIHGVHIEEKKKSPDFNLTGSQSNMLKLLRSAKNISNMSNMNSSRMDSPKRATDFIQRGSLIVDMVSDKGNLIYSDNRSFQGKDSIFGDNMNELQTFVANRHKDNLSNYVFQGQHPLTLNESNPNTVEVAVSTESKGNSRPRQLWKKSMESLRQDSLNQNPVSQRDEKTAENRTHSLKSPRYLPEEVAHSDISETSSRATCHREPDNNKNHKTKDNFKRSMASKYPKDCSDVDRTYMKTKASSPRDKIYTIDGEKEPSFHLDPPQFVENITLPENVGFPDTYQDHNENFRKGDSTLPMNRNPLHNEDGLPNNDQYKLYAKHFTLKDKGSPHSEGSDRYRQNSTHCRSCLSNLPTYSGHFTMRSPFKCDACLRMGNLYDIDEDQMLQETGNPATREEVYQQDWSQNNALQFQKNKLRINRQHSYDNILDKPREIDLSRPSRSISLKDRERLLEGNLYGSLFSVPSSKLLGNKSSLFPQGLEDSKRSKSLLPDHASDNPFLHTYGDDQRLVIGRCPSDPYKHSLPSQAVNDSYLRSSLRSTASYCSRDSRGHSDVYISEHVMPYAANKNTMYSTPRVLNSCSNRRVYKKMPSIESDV
T2 sequence (Q00960 27-1482, other chains not shown): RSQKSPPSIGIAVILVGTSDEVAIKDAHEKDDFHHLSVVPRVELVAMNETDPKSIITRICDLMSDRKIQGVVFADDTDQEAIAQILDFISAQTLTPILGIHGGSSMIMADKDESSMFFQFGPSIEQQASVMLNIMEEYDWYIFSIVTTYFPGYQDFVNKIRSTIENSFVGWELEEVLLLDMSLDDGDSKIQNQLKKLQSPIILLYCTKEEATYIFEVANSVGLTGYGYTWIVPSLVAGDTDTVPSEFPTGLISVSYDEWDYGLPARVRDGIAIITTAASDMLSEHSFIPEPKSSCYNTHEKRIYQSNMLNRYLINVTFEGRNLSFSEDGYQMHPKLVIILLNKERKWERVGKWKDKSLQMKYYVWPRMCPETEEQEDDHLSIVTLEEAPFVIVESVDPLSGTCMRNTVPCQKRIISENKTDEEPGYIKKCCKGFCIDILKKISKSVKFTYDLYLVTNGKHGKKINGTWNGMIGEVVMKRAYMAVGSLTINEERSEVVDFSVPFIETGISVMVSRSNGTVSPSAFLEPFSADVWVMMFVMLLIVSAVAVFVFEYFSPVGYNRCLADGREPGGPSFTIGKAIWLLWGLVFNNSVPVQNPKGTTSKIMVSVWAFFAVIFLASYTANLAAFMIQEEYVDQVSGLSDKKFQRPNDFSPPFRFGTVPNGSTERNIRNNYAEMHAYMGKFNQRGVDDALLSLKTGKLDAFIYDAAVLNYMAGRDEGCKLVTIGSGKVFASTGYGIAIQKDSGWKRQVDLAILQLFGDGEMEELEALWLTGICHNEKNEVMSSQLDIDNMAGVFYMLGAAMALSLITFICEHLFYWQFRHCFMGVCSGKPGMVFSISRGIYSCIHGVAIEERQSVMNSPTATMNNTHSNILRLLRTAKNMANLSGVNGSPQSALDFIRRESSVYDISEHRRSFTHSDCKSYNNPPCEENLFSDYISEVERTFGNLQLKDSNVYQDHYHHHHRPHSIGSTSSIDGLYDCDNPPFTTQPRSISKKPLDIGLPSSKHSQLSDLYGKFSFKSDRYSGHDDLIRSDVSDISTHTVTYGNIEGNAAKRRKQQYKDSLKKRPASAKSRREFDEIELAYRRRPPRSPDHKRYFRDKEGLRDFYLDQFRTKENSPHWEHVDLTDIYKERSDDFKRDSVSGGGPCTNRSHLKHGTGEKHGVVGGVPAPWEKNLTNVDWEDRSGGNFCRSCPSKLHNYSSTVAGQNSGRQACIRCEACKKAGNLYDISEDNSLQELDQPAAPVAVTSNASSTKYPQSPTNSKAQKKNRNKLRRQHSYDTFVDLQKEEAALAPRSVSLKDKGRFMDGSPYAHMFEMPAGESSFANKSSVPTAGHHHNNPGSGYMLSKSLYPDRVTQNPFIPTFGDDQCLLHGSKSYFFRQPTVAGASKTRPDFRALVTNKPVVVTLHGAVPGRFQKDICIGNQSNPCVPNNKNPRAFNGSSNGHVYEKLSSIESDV

| Structure (SMILES) | antagonism of d-amphetamine-induced stimulation [1] | IC50 [2] [µM] | IC50 [3] [µM] | IC50 [4] [µM] | 6-OHDA rat MED (minimum effective dose) [5] [mg/kg] | antiparkinsonian-like activity [6] |
| --- | --- | --- | --- | --- | --- | --- |
| N[C@@H]1CCN(O)C1=O [(+) HA-966] | selectively antagonize d-amphetamine-induced stimulation when injected into rat nucleus accumbens but not in striatum | – | – | – | – | – |
| O=c1[nH]c2cc(Cl)c([S+]([O-])CCN3CCC(Cc4ccccc4)CC3)cc2o1 (stereo not shown) [Example 17, 6-[2-(4-benzylpiperidin-1-yl)ethanesulfinyl]-5-chloro-3H-benzooxazol-2-one] | – | 40 | 0.16 | > 300 | > 10 | – |
| O=c1[nH]c2ccc([S+]([O-])CCN3CCC(Cc4ccc(F)cc4F)CC3)cc2o1 (stereo not shown) [Example 12, 6-{2-[4-(2,4-difluorobenzyl)-piperidin-1-yl]-ethanesulfinyl}-3H-benzooxazol-2-one] | – | 30 | 0.01 | 130 | 10 | – |
| CC12CC3CC(C)(C1)CC(N)(C3)C2 [memantine] | – | – | – | – | – | showed antiparkinsonian-like activity in animals |
| O=c1[nH]c2ccc([S+]([O-])CCN3CCC(Cc4ccc(F)cc4)CC3)cc2o1 (single isomer, unassigned; (-)) [Example 20, (-)-6-{2-[4,(4-fluorobenzyl)piperidin-1-yl]ethanesulfinyl}-3H-benzooxazol-2-one] | – | – | 0.03 | – | 30 | – |
| O=c1[nH]c2ccc([S+]([O-])CCN3CCC(Cc4ccccc4)CC3)cc2o1 (stereo not shown) [Example 4, 6-[2-(4-Benzyl-piperidin-1-yl)-ethanesulfinyl]-3H-benzooxazol-2-one] | – | > 300 | 0.03 | > 300 | 3 | – |
| O=c1[nH]c2ccc([S+]([O-])CCN3CCC(Cc4ccc(F)cc4)CC3)cc2o1 (stereo not shown) [Example 1, 6-[2-[4-(4-Fluoro-benzyl)-piperidin-1-yl]-ethanesulfinyl]-3H-benzooxazol-2-one] | – | 105 | 0.03 | 190 | 1 | – |
| O=C(O)c1cc(O)c2c(Cl)cc(Cl)cc2n1 [5,7-dichlorokynurenic acid] | selectively antagonize d-amphetamine-induced stimulation when injected into rat nucleus accumbens but not in striatum | – | – | – | – | – |
| O=c1[nH]c2ccc([S+]([O-])CCN3CCC(Cc4ccc(Cl)c(Cl)c4)CC3)cc2o1 (stereo not shown) [Example 6, 6-{2-[4-(3,4-dichlorobenzyl)-piperidin-1-yl]-ethanesulfinyl}-3H-benzooxazol-2-one] | – | 70 | 0.1 | 80 | > 10 | – |
| O=c1[nH]c2ccc([S+]([O-])CCN3CCC(Cc4cccc(F)c4F)CC3)cc2o1 (stereo not shown) [Example 11, 6-{2-[4-(2,3-difluorobenzyl)-piperidin-1-yl]-ethanesulfinyl}-3H-benzooxazol-2-one] | – | 40 | 0.05 | 140 | 10 | – |
| CC(=O)Nc1ccc(CC2CCN(CC[S+]([O-])c3ccc4[nH]c(=O)oc4c3)CC2)cc1 (stereo not shown) [Example 16, N-(4-{1-[2-(2-oxo-2,3-dihydrobenzooxazol-6-sulfinyl)ethyl]piperidin-4-ylmethyl}phenyl)acetamide] | – | > 300 | 10 | > 300 | – | – |
| O=c1[nH]c2ccc([S+]([O-])CCN3CCC(Cc4ccccc4F)CC3)cc2o1 (stereo not shown) [Example 7, 6-{2-[4-(2-fluorobenzyl)-piperidin-1-yl]-ethanesulfinyl}-3H-benzooxazol-2-one] | – | 55 | 0.09 | 60 | 10 | – |
| O=c1[nH]c2cc(Cl)c([S+]([O-])CCN3CCC(Cc4ccc(F)cc4)CC3)cc2o1 (stereo not shown) [Example 18, 5-Chloro-6-{2-[4-(4-fluorobenzyl)piperidin-1-yl]ethanesulfinyl}-3H-benzooxazol-2-one] | – | 35 | 0.11 | > 300 | > 10 | – |
| COc1ccc(CC2CCN(CC[S+]([O-])c3ccc4[nH]c(=O)oc4c3)CC2)cc1 (stereo not shown) [Example 5, 6-{2-[4-(4-methoxybenzyl)-piperidin-1-yl]-ethanesulfinyl}-3H-benzooxazol-2-one] | – | 55 | 0.1 | 150 | > 10 | – |
| O=c1[nH]c2ccc([S+]([O-])CCN3CCC(Cc4c(F)cccc4F)CC3)cc2o1 (stereo not shown) [Example 14, 6-{2-4[-(2,6-difluorobenzyl)-piperidin-1-yl]-ethanesulfinyl}-3H-benzooxazol-2-one] | – | 55 | 0.04 | 160 | > 10 | – |
| O=c1[nH]c2ccc([S+]([O-])CCN3CCC(O)(Cc4ccccc4)CC3)cc2o1 (stereo not shown) [Example 8, 6-[2-(4-benzyl-4-hydroxypiperidin-1-yl)-ethanesulfinyl]-3H-benzooxazol-2-one] | – | 40 | 1.1 | 230 | – | – |
| O=c1[nH]c2ccc([S+]([O-])CCN3CCC(Cc4ccc(C(F)(F)F)cc4)CC3)cc2o1 (stereo not shown) [Example 13] | – | 35 | 0.04 | 150 | 10 | – |
| O=c1[nH]c2ccc([S+]([O-])CCN3CCC(Cc4ccc(Cl)cc4)CC3)cc2o1 (stereo not shown) [Example 2, 6-{2-[4-(4-chloro-benzyl)-piperidin-1-yl]-ethanesulfinyl}-3H-benzooxazol-2-one] | – | > 300 | 0.02 | 200 | 3 | – |
| O=c1[nH]c2ccc([S+]([O-])CCN3CCC(Cc4ccc(Cl)cc4Cl)CC3)cc2o1 (stereo not shown) [Example 15, 6-{2-[4-(2,4-dichlorobenzyl)-piperidin-1-yl]-ethanesulfinyl}-3H-benzooxazol-2-one] | – | 90 | 0.04 | 150 | 10 | – |
| O=c1[nH]c2ccc([S+]([O-])CCN3CCC(Cc4ccc(F)cc4)CC3)cc2o1 (single isomer, unassigned; (+)) [Example 19, (+)-6-{2-[4-(4-fluorobenzyl)piperidine-1-yl]ethanesulfinyl}-3H-benzooxazol-2-one] | – | – | 0.03 | – | 1 | – |
| NC12CC3CC(CC(C3)C1)C2 [amantadine] | – | – | – | – | – | showed antiparkinsonian-like activity in animals |
| Cc1ccc(CC2CCN(CC[S+]([O-])c3ccc4[nH]c(=O)oc4c3)CC2)cc1 (stereo not shown) [Example 3, 6-{2-[4-(4-methyl-benzyl)-piperidin-1-yl]-ethanesulfinyl}-3H-benzooxazol-2-one] | – | 100 | 0.03 | – | 3 | – |
| O=C(c1ccccc1)C1CCN(CC[S+]([O-])c2ccc3[nH]c(=O)oc3c2)CC1 (stereo not shown) [Example 10, 6-[2-(4-benzoylpiperidin-1-yl)-ethanesulfinyl]-3H-benzooxazol-2-one] | – | 70 | 0.34 | 140 | – | – |
| O=c1[nH]c2ccc([S+]([O-])CCN3CCC(O)(Cc4ccc(F)cc4)CC3)cc2o1 (stereo not shown) [Example 9, 6-{2-[4-(4-fluorobenzyl)-4-hydroxy-piperidin-1-yl]-ethanesulfinyl}-3H-benzooxazol-2-one] | – | 50 | 0.9 | 200 | > 10 | – |
